{"source": "patent US6605115B1", "about": "“Method and composition for inhibiting cardiovascular cell proliferation” (Board of Trustees of the Leland Stanford Junior University, priority 1999, dated 2003)", "key": {"[1]": {"system": "coronary vessels of transplanted PVG rat donor hearts", "assay": "Heart transplant study (graft coronary artery disease, GCAD)", "type": "in vivo", "settings": "for % affected vessels / % luminal narrowing / I/M ratio: intracoronary 50 uM, 30 minutes", "procedure": "In this study, PVG rat donor hearts (n=48) were transplanted heterotopically into the abdomen of ACI recipients. Donor hearts received either intracoronary PBS or intracoronary 50 uM (L)-arginine polymer (L-R5 or L-R9) for 30 minutes. (D-arginine polymers were not included in this study.) Each of these groups was further divided into 60 and 90 day study animals (n=6 each). Percent luminal narrowing, intima to media ratio (I/M), and percent affected vessels were determined as described in Example 11, below. Transfection efficiency was determined by infusing biotinylated R5 and R9, as in the preceding studies, and calculating the percentage of biotin positive nuclei divided by total number of nuclei.\nPVG rat donor hearts (n=48) were transplanted heterotopically into the abdomen of ACI recipients. Donor hearts received either intracoronary PBS or intracoronary 50 uM (L)-arginine polymer (L-R5 or L-R9) for 30 minutes. Each group was further divided into 60 and 90 day study animals (n=6 each). Tissue cross sections (5μ) were stained with EVG (Elastica-van Gieson) preparation, and vessels were scored using computerized morphometry for analysis of % luminal narrowing, intima to media ratio (I/M), and % affected vessels. Transfection efficiency was determined by infusing biotinylated R5 and R9, as in preceding examples, and calculating the percentage of biotin positive nuclei divided by total number of nuclei. Results are described in Section IV C, above."}, "[2]": {"system": "cell membrane", "settings": "previously demonstrated; cited from earlier work"}, "[3]": {"system": "cytokine-stimulated VSMC", "assay": "Effect of arginine oligomers on NO production in cytokine-stimulated VSMC (NO2, Griess)", "type": "cell-based, rat", "procedure": "(§1) Rat VSMCs were prepared from the media layer of thoracic aorta of Sprague-Dawley rats by the explant method. The cells were cultured in Dulbecco's modified Eagle's medium (DMEM, Gibco BRL, Gaithersburg, Md.) containing 10% fetal calf serum, 100 U/ml penicillin and 100 μg/ml streptomycin at 37° C. under a humidified atmosphere containing 5% CO2. After subconfluent growth, cells were cultured with MEM Select Amine Kit (Gibco BRL, Gaithersburg, Md.) to be treated by specific concentrations of extracellular free L-arginine. Experiments were performed using cultured cells at passage levels of 5-10.\n(§2) Extracellular NO production was measured as its stable oxidative metabolite, nitrite (NO2). At the end of each incubation, samples of the medium (80 μl) were collected, and NO2 measurement was performed using the Griess reaction facilitated by a commercial calorimetric assay (Cayman Chemical, Ann Arbor, Mich.). Values of NO2 production were corrected with relative cell count assessed by a cell proliferation kit II (XTT) (Boeheringer Mannheim, Germany).\nSubconfluent cells were pre-incubated with medium containing 100 μM arginine for 24 hours. The cells were then transiently pretreated with each arginine polymer for 30 minutes. After translocation, the cells were incubated with a mixture of IFN-γ (100 U/ml) and LPS (100 μg/ml) in medium containing 100 μM L-arginine for another 24 hours. In some experiments, L-NMMA (1 mM), a nitric oxide synthase inhibitor, was added to the medium."}, "[4]": {"system": "vein grafts", "assay": "Vein graft model: vessel morphometry 28 days after surgery", "type": "in vivo, New Zealand white rabbits", "procedure": "Male New Zealand white rabbits (3.0-3.5 kg) fed standard diets were anesthetized with a mixture of ketamine (40 mg/kg) and xylazine (5 mg/kg) intramuscularly. The left external jugular vein was exposed through a longitudinal neck incision. The jugular vein was excised, gently flushed and immersed in PBS (control) or PBS containing either L-R7 (10.0 μM) or D-r7 (10.0 μM) for 30 minutes.\nThe right common carotid artery was exposed and clamped at the both proximal and distal ends. The treated vein segment was washed with PBS and then anastomosed in a reverse end-to-side fashion into the carotid artery, using continuous 8-0 polypropylene sutures. The common carotid artery was ligated and dissected between the two anastomoses, and the wound was closed with 3-0 nylon suture.\nVein graft segments were harvested on the 28th surgical day. Graft segments were fixed in 10% buffered formalin with gentle intraluminal pressure to maintain the physiological graft configuration. The middle portion of the paraffin samples were sectioned (5 μm) and stained with hematoxylin/eosin for light microscopic examination (FIGS. 8A-C). Three sections of each graft, taken at 0.5 mm intervals, were analyzed by planimetry by a observer blinded to the treatment group. The cross-sectional areas of the lumen, intima and media was digitized with the use of the Image Analyst program (Automatrix). The ratio of intima to media (I/M) area was calculated."}, "[5]": {"system": "cytokine-stimulated VSMC", "assay": "Effect of arginine oligomers on NO production in cytokine-stimulated VSMC (NO2, Griess)", "type": "cell-based, rat", "settings": "exposure 5 minutes; observed for 24 hours; free L-arginine at 1 mM"}, "[6]": {"system": "vein graft segments", "assay": "Ex vivo NOx production from vein graft harvested 3 days after surgery", "type": "in vivo, New Zealand white rabbits", "settings": "vein grafts harvested after 3 days, absence of calcium ionophore", "procedure": "Vein grafts were harvested 3 days after surgery, as described in Example 7. Vein graft segments were incubated in 1 me of Hanks' buffered saline solution (HBSS, Irvine Scientific) containing Ca^2+ (1.0 mM) and L-arginine (100 μM, Sigma) at 37° C. for 2 hours. NOx (nitrate and nitrite) production was measured either in the absence (basal) or presence (stimulated) of calcium ionophore (A23187, 10.0 μM, Sigma). Samples of the medium (80 μL) were collected, and NOx measurement was performed using the Griess reaction facilitated by a commercial calorimetric assay (Cayman Chemical)."}, "[7]": {"system": "Rat aortic VSMC", "assay": "VSMC proliferation assay (XTT)", "type": "cell-based", "settings": "10.0 μM, 30 minutes, then growth medium 0.5% FBS for 48 hours; vs vehicle", "procedure": "Rat aortic VSMC were grown to 50% confluence in 96-well cell culture plates. VSMC were then washed and incubated with serum free DMEM for 48 hours to obtain quiescent nondividing cells. Thereafter, VSMC were treated with vehicle, L-R7 (10.0 μM), or D-R7 (10.0 μM) for 30 minutes. After the treatment, cells were washed, and further incubated with serum containing DMEM (0.5%, FBS). Cells were harvested after 48 hours of incubation. Cell count was performed with commercial cell proliferation assay kit using spectrophotometer (XTT, Boehringer Mannheim). As a negative control, cells treated with vehicle and incubated with DSF were used. As an index of cell proliferation, the OD ratio of each treatment group to negative control group was calculated as an index of cell proliferation."}, "[8]": {"system": "human umbilical vein endothelial cells (ECV304)", "assay": "In vitro translocation of biotin-labeled peptides into endothelial cells", "type": "cell-based", "settings": "VSMC and endothelial cells in culture", "procedure": "Spontaneously transformed human umbilical vein endothelial cells (ECV304, ATCC) were cultured in medium M199 (Irvine Scientific) containing 10% fetal bovine serum (FBS), 100 IU/ml penicillin and 100 μg/ml of streptomycin (Gibco BRL). Confluent cells were washed and placed in serum-free medium. After 2 hours, the cells were incubated in presence of biotin labeled peptides, as bL-R7, or bD-R7, or bL-K7 (0.1, 1.0, and 10.0 μM). After 30 minutes of incubation, cells were washed 3 times with phosphate-buffered saline (PBS), fixed in ethanol/acetone; washed in PBS; incubated for 30 minutes with peroxidase suppressor (ImmunoPure, Pierce) to block endogenous peroxidase activity; and then incubated with 5 μg/ml of horse-radish peroxidase (HRP) conjugated strepavidin (Pierce) for 30 minutes. Substrate of HRP, diaminobenzidine (DAB, Sigma), was added to the cells. The reaction was terminated by washing in distilled water after a 60-second incubation. This experiment was repeated 3 times."}, "[9]": {"system": "rat VSMC", "assay": "Stimulation of cells with interferon-γ and LPS: NO2 accumulation and dependence on extracellular L-arginine", "type": "cell-based", "settings": "IFN-γ dose", "procedure": "as §1, §2\nCells were plated at a density of 5×10^3 per well into 96-well plates. […] After 24 hours of incubation, the cells were then treated with a mixture of IFN-γ (100 U/ml) and LPS (100 μg/ml) in the medium containing the same dose of L-arginine for another 24 hours, and nitrite (NO2) accumulation in the culture medium was quantified."}}, "data": [{"molecule": "penta-L-arginine [R5]", "values": [{"measurement": "GCAD compared to PBS controls", "setting": "[1]; 60 and 90 days", "value": "essentially no difference in GCAD"}, {"measurement": "% affected vessels", "setting": "[1]; 60 days", "value": "18.9 ± 7", "unit": "%"}, {"measurement": "% luminal narrowing", "setting": "[1]; 60 days", "value": "12.6 ± 6.7", "unit": "%"}, {"measurement": "I/M ratio", "setting": "[1]; 60 days", "value": ".13 ± .07"}, {"measurement": "% affected vessels", "setting": "[1]; 90 days", "value": "18.5 ± 11.9", "unit": "%"}, {"measurement": "% luminal narrowing", "setting": "[1]; 90 days", "value": "14.2 ± 12", "unit": "%"}, {"measurement": "I/M ratio", "setting": "[1]; 90 days", "value": ".16 ± .14"}, {"measurement": "transfection of coronary vessels", "setting": "[1]; biotinylated oligomer infused", "value": "minimal transfection of coronary vessels"}, {"measurement": "translocation across the cell membrane", "setting": "[2]", "value": "not to translocate across the cell membrane"}, {"measurement": "NO production", "setting": "[3]; pretreatment 30 minutes, then IFN-γ and LPS, 100 μM extracellular L-arginine", "value": "no significant enhancement of NO production"}, {"measurement": "myointima formation", "setting": "[4]", "value": "not effective in inhibiting myointima formation"}]}, {"molecule": "N=C(N)NCCC[C@H](N)C(=O)O", "note": "[L-arginine, reference compound]", "values": [{"measurement": "NO biosynthesis after 5 minutes exposure", "setting": "[5]", "value": "did not significantly increase NO biosynthesis"}, {"measurement": "elevation of NO production", "setting": "[3]; R7 10 μM pretreatment, free L-arginine up to 1 mM", "value": "not observed"}]}, {"molecule": "hepta-D-arginine [D-r7]", "values": [{"measurement": "Basal NOx production", "setting": "[6]", "value": "48±8", "unit": "nM/mg tissue/hr"}, {"measurement": "VSMC proliferation", "setting": "[7]", "value": "significantly inhibited"}, {"measurement": "translocation across cytoplasmic and nuclear membranes", "setting": "[8]", "value": "very efficient at translocating across both cytoplasmic and nuclear membranes"}, {"measurement": "NO production", "setting": "[3]; 100 μM, 30 minutes", "value": "did not increase the NO production"}, {"measurement": "myointima formation", "setting": "[4]", "value": "substantially less myointima formation"}, {"measurement": "intima/media ratio (I/M)", "setting": "[4]; 10.0 μM", "value": "0.8±0.2"}, {"measurement": "intimal area", "setting": "[4]; 10.0 μM, 30 minutes immersion", "value": "1.1±0.4", "unit": "mm^2"}, {"measurement": "reduction of intimal area", "setting": "[4]; 10.0 μM, vs control", "value": "about 35%"}]}, {"molecule": "IFN-γ: Recombinant rat recombinant interferon-γ (protein, UniProt P01581 23-156, looked up) Interferon gamma: QGTLIESLESLKNYFNSSSMDAMEGKSLLLDIWRNWQKDGNTKILESQIISFYLRLFEVLKDNQAISNNISVIESHLITNFFSNSKAKKDAFMSIAKFEVNNPQIQHKAVNELIRVIHQLSPESSLRKRKRSRC", "values": [{"measurement": "effect on NO biosynthesis", "setting": "[9]", "value": "dose-dependent"}]}]}
